Drawing on PubChem BioAssay AID1745844 (Carcinogenic Potency Database (CPDB), 2022), this text covers carcinogen call and TD50 for nine compounds.

The data set has as its system rodent lifetime carcinogenesis bioassay, tumor incidence TD50. As to the kind of experiment: chronic cancer bioassays in animals – CPDB, compiled studies (AID 1745844).

By TD50 is commonly meant the dose at which the toxic effect under study appears in half of the subjects.

Active and inactive are the calls of the source. The rule behind the calls is not given here.

In the case of `CC(CO)OC(C)CO` (stereo not given) (tested in a mixture with another compound), the carcinogen call is, setting by setting: (mouse, strain B6C3F1, females, in drinking water, site: any site (literature study), lesion: several types, types named in the paper, dosed 104 weeks, study length 104 weeks) “negative (inactive)”; (rat, strain Fischer 344, females, in drinking water, site: any site (literature study), lesion: several types, types named in the paper, dosed 104 weeks, study length 104 weeks) “negative (inactive)”. In addition, the TD50 reads like this: (mouse, strain B6C3F1, females, in drinking water, site: lung, lesion: alveolar/bronchiolar adenoma + alveolar/bronchiolar carcinoma, dosed 104 weeks, study length 104 weeks) 31800 mg/kg/day; (mouse, strain B6C3F1, males, in drinking water, site: any site (literature study), lesion: several types, types named in the paper, dosed 104 weeks, study length 104 weeks) 24500 mg/kg/day (inactive); (mouse, strain B6C3F1, males, in drinking water, site: lung, lesion: alveolar/bronchiolar adenoma + alveolar/bronchiolar carcinoma, dosed 104 weeks, study length 104 weeks) 18100 mg/kg/day; (rat, strain Fischer 344, males, in drinking water, site: any site (literature study), lesion: several types, types named in the paper, dosed 104 weeks, study length 102 weeks) 274 mg/kg/day (inactive); (rat, strain Fischer 344, males, in drinking water, site: liver, lesion: hepatocellular adenoma + hepatoblastoma + hepatocellular carcinoma, dosed 104 weeks, study length 102 weeks) 68200 mg/kg/day.

For `CCOC(=O)CC(SP(=O)(OC)OC)C(=O)OCC` (stereo not given), the carcinogen call (mouse, strain B6C3F1, females, in feed, site: any site (literature study), lesion: several types, types named in the paper, dosed 103 weeks, study length 103 weeks) is “negative (inactive)” and the carcinogen call (rat, strain Fischer 344, males, in feed, site: any site (literature study), lesion: several types, types named in the paper, dosed 103 weeks, study length 104 weeks) was “negative (inactive)”. The TD50 was 2760 mg/kg/day (mouse, strain B6C3F1, females, in feed, site: lung, lesion: alveolar/bronchiolar adenoma + alveolar/bronchiolar carcinoma, dosed 103 weeks, study length 103 weeks); 472 mg/kg/day (inactive) (mouse, strain B6C3F1, males, in feed, site: any site (literature study), lesion: several types, types named in the paper, dosed 103 weeks, study length 103 weeks); 579 mg/kg/day (mouse, strain B6C3F1, males, in feed, site: liver, lesion: hepatocellular adenoma + hepatocellular carcinoma + neoplastic nodule, dosed 103 weeks, study length 103 weeks); 3230 mg/kg/day (mouse, strain B6C3F1, males, in feed, site: lung, lesion: alveolar/bronchiolar adenoma + alveolar/bronchiolar carcinoma, dosed 103 weeks, study length 103 weeks); 296 mg/kg/day (inactive) (rat, strain Fischer 344, females, in feed, site: thyroid gland, lesion: c-cell adenoma + c-cell carcinoma, dosed 103 weeks, study length 104 weeks); 1560 mg/kg/day (rat, strain Fischer 344, males, in feed, site: liver, lesion: hepatocellular adenoma + hepatocellular carcinoma + neoplastic nodule, dosed 103 weeks, study length 104 weeks).

`N#CN`: the TD50 by setting is: (mouse, strain B6AKF1, males, oral dosing, site: liver, lesion: hepatoma, dosed 76 weeks, study length 76 weeks) 191 mg/kg/day; (mouse, strain B6C3F1, females, in feed, site: all sites, lesion: leukemia + lymphoma, dosed 100 weeks, study length 100 weeks) 478 mg/kg/day (inactive); (mouse, strain B6C3F1, females, in feed, site: lung, lesion: alveolar/bronchiolar adenoma + alveolar/bronchiolar carcinoma, dosed 100 weeks, study length 100 weeks) 4040 mg/kg/day; (mouse, strain B6C3F1, females, oral dosing, site: any site (literature study), lesion: several types, types named in the paper, dosed 76 weeks, study length 76 weeks) 68 mg/kg/day; (mouse, strain B6C3F1, males, in feed, site: all sites, lesion: hemangiosarcoma, dosed 100 weeks, study length 100 weeks) 766 mg/kg/day (inactive); (mouse, strain B6C3F1, males, in feed, site: any site (literature study), lesion: several types, types named in the paper, dosed 100 weeks, study length 100 weeks) 909 mg/kg/day. Moreover, the TD50 (mouse, strain B6C3F1, males, oral dosing, site: all sites, lesion: reticulum-cell sarcoma, dosed 76 weeks, study length 76 weeks) was found to be 30.9 mg/kg/day; the TD50 (mouse, strain B6C3F1, males, oral dosing, site: any site (literature study), lesion: several types, types named in the paper, dosed 76 weeks, study length 76 weeks) was found to be 16.7 mg/kg/day; the TD50 (mouse, strain B6C3F1, males, oral dosing, site: liver, lesion: hepatoma, dosed 76 weeks, study length 76 weeks) was 55.7 mg/kg/day; the TD50 (rat, strain Fischer 344, females, in feed, site: any site (literature study), lesion: several types, types named in the paper, dosed 107 weeks, study length 107 weeks) was 267 mg/kg/day (inactive); the TD50 (rat, strain Fischer 344, males, in feed, site: all sites, lesion: leukemia + lymphoma + neoplasm, NOS, dosed 107 weeks, study length 107 weeks) was 7.45 mg/kg/day (inactive).

Take `Clc1ccccc1`: the TD50 is 373 mg/kg/day (inactive) (mouse, strain B6C3F1, females, by gavage, site: any site (literature study), lesion: several types, types named in the paper, dosed 103 weeks, study length 105 weeks); 235 mg/kg/day (mouse, strain B6C3F1, females, by gavage, site: liver, lesion: hepatocellular adenoma + hepatocellular carcinoma + neoplastic nodule, dosed 103 weeks, study length 105 weeks); 623 mg/kg/day (mouse, strain B6C3F1, females, by gavage, site: lung, lesion: alveolar/bronchiolar adenoma + alveolar/bronchiolar carcinoma, dosed 103 weeks, study length 105 weeks); 60.1 mg/kg/day (inactive) (mouse, strain B6C3F1, males, by gavage, site: any site (literature study), lesion: several types, types named in the paper, dosed 103 weeks, study length 105 weeks); 382 mg/kg/day (mouse, strain B6C3F1, males, by gavage, site: liver, lesion: hepatocellular adenoma + hepatocellular carcinoma + neoplastic nodule, dosed 103 weeks, study length 105 weeks); 190 mg/kg/day (mouse, strain B6C3F1, males, by gavage, site: lung, lesion: alveolar/bronchiolar adenoma + alveolar/bronchiolar carcinoma, dosed 103 weeks, study length 105 weeks). The TD50 (rat, strain Fischer 344, females, by gavage, site: liver, lesion: hepatocellular adenoma + hepatocellular carcinoma + neoplastic nodule, dosed 103 weeks, study length 104 weeks) was 867 mg/kg/day; the TD50 (rat, strain Fischer 344, females, by gavage, site: parathyroid + thyroid gland + thyroid follicle, lesion: adenoma, NOS + follicular-cell carcinoma + cystadenoma, NOS, dosed 103 weeks, study length 104 weeks) was 520 mg/kg/day (inactive); the TD50 (rat, strain Fischer 344, males, by gavage, site: any site (literature study), lesion: several types, types named in the paper, dosed 103 weeks, study length 104 weeks) stood at 190 mg/kg/day; the TD50 (rat, strain Fischer 344, males, by gavage, site: liver, lesion: hepatocellular adenoma + hepatocellular carcinoma + neoplastic nodule, dosed 103 weeks, study length 104 weeks) came to 328 mg/kg/day; the TD50 (rat, strain Fischer 344, males, by gavage, site: liver, lesion: neoplastic nodule, dosed 103 weeks, study length 104 weeks) is 247 mg/kg/day.

Turning to `CN(N=O)c1ccncc1`, the carcinogen call by setting is: (rat, strain BD VI, females, by gavage, site: any site (literature study), lesion: benign tumor, dosed 101 weeks, study length 101 weeks) “negative (inactive)”; (rat, strain BD VI, females, by gavage, site: any site (literature study), lesion: several types, types named in the paper, dosed 101 weeks, study length 101 weeks) “negative (inactive)”; (rat, strain BD VI, females, by gavage, site: liver, lesion: several types, types named in the paper, dosed 101 weeks, study length 101 weeks) “negative (inactive)”. For the same compound, under “rat, strain BD VI, females, by gavage, site: any site (literature study), lesion: malignant tumor, dosed 101 weeks, study length 101 weeks”, the TD50 is 26.8 mg/kg/day (inactive).

On to `CC(C)=NO`, for which the TD50 (rat, strain MRC-Wistar, females, in drinking water, site: any site (literature study), lesion: several types, types named in the paper, dosed 78 weeks, study length 130 weeks) is 91.5 mg/kg/day; the TD50 (rat, strain MRC-Wistar, females, in drinking water, site: liver, lesion: hemangioma, dosed 78 weeks, study length 130 weeks) is 408 mg/kg/day (inactive); the TD50 (rat, strain MRC-Wistar, females, in drinking water, site: liver, lesion: hepatocellular adenoma, dosed 78 weeks, study length 130 weeks) is 127 mg/kg/day (inactive); the TD50 (rat, strain MRC-Wistar, females, in drinking water, site: liver, lesion: several types, types named in the paper, dosed 78 weeks, study length 130 weeks) was 127 mg/kg/day (inactive); the TD50 (rat, strain MRC-Wistar, males, in drinking water, site: any site (literature study), lesion: several types, types named in the paper, dosed 78 weeks, study length 110 weeks) was found to be 12.8 mg/kg/day; the TD50 (rat, strain MRC-Wistar, males, in drinking water, site: liver, lesion: hemangioma, dosed 78 weeks, study length 110 weeks) came to 136 mg/kg/day. For the same compound, the TD50 was 12.1 mg/kg/day (rat, strain MRC-Wistar, males, in drinking water, site: liver, lesion: hepatocellular adenoma, dosed 78 weeks, study length 110 weeks) and 12.1 mg/kg/day (inactive) (rat, strain MRC-Wistar, males, in drinking water, site: liver, lesion: several types, types named in the paper, dosed 78 weeks, study length 110 weeks).

As to `CCOP(=S)(OCC)SC1OCCOC1SP(=S)(OCC)OCC` (stereo not given), the TD50 was 2590 mg/kg/day (inactive) (mouse, strain B6C3F1, females, in feed, site: any site (literature study), lesion: several types, types named in the paper, dosed 78 weeks, study length 90 weeks); 1820 mg/kg/day (mouse, strain B6C3F1, females, in feed, site: lung, lesion: alveolar/bronchiolar adenoma + alveolar/bronchiolar carcinoma, dosed 78 weeks, study length 90 weeks); 628 mg/kg/day (mouse, strain B6C3F1, males, in feed, site: lung, lesion: alveolar/bronchiolar adenoma + alveolar/bronchiolar carcinoma, dosed 78 weeks, study length 90 weeks). Further, the carcinogen call is “negative (inactive)” (mouse, strain B6C3F1, males, in feed, site: any site (literature study), lesion: several types, types named in the paper, dosed 78 weeks, study length 90 weeks); “negative (inactive)” (rat, strain Osborne-Mendel, females, in feed, site: any site (literature study), lesion: several types, types named in the paper, dosed 78 weeks, study length 111 weeks); “negative (inactive)” (rat, strain Osborne-Mendel, males, in feed, site: any site (literature study), lesion: several types, types named in the paper, dosed 78 weeks, study length 111 weeks).

As to `NC(=O)N(CCCO)N=O`, the TD50 reads like this: (rat, strain Fischer 344, females, by gavage, site: forestomach, lesion: one or several types, types not named, dosed 30 weeks, study length 104 weeks) 1.27 mg/kg/day; (rat, strain Fischer 344, females, by gavage, site: liver, lesion: one or several types, types not named, dosed 30 weeks, study length 104 weeks) 1.27 mg/kg/day; (rat, strain Fischer 344, males, by gavage, site: forestomach, lesion: one or several types, types not named, dosed 30 weeks, study length 104 weeks) 1.98 mg/kg/day; (rat, strain Fischer 344, males, by gavage, site: forestomach, lesion: one or several types, types not named, dosed 40 weeks, study length 104 weeks) 0.866 mg/kg/day; (rat, strain Fischer 344, males, by gavage, site: liver, lesion: one or several types, types not named, dosed 30 weeks, study length 104 weeks) 3.78 mg/kg/day; (rat, strain Fischer 344, males, by gavage, site: liver, lesion: one or several types, types not named, dosed 40 weeks, study length 104 weeks) 1.24 mg/kg/day. In addition, the TD50 is, setting by setting: (rat, strain Fischer 344, males, by gavage, site: lung, lesion: several types, types named in the paper, dosed 30 weeks, study length 104 weeks) 1.79 mg/kg/day; (rat, strain Fischer 344, males, by gavage, site: skin, lesion: several types, types named in the paper, dosed 30 weeks, study length 104 weeks) 0.668 mg/kg/day; (rat, strain Fischer 344, males, by gavage, site: stomach, glandular, lesion: one or several types, types not named, dosed 30 weeks, study length 104 weeks) 0.888 mg/kg/day.

Turning to `CC1CC(=O)O1` (stereo not given), the TD50 (rat, strain Eastern Sprague-Dawley, females, by gavage, site: forestomach, lesion: squamous-cell carcinoma, dosed 70 weeks, study length 70 weeks) was 13.8 mg/kg/day.
